Data published in patent publication US20040018482A1, “Loading and unloading of permeating protectants for cell, tissue, and organ cryopreservation by vitrification” (priority 1997, published 2004).
One block for each compound: values may come before it.

How the values were obtained:
isolated rat heart = assay: Cardiac function of isolated rat heart (working mode reperfusion) after DMSO loading and unloading
Method: Preparation of the Cardiac Explant: The animal experiments were conducted in accordance with the “Principles of Laboratory Animal Care” formulated by the Institute of Laboratory Animal Resources and the “Guide for the Care and Use of Laboratory Animals” prepared by the Institute of Laboratory Animal Resources and published by the National Institute of Health (NIH Publication No. 86-23, 1985). Male Sprague-Dawley rats (300-350g) were anesthetized with sodium pentobarbital (65 mg/kg, ip) and anticoagulated with heparin (250u, iv). The heart was excised and immediately immersed in ice-cold Krebs-Henseleit buffer (KHB), which contained (in mM): 118 NaCl, 11 glucose, 25 NaHCO3, 4.7 KCl, 1.2 MgSO4, 1.2 KH2PO4, 0.5 Na-EDTA, and 2.5 CaCl2. The aorta was cannulated and the heart retrograde perfused at 70 mm Hg for 9 min. with 36.5° C. KHB equilibrated with 95% 02/[…]. The perfusion was continued for 2 min. at 60 mm Hg with CP-11E saturated with 100% 02. The composition of CP-11E (in mM) was: 125 NaCl, 7 glucose, 1.2 KH2PO4, 10 mannitol, 15 MgSO4, 14 KCl, 10 Hepes, 0.02 EDTA, 0.28 CaCl2 , pH 7.5.
After CP-11E flush, the arrested heart was transferred to a perfusion apparatus (FIG. 1). Both CP-11EB and CP-11E+DMSO+mannitol were bubbled constantly with 100% 02. Perfusate was delivered via an aortic cannula by a peristaltic pump at a flow rate of 1 ml/min. Two experiments were performed at room temperature.
Experiment 0: The heart was gradually loaded with 30 wt % DMSO and immediately unloaded. No co-solutes were used. […]
Assessment of cardiac function: Cardiac function was assessed by working mode reperfusion with KHB at 11 mm Hg preload and 70 mm Hg after load. Heart rate (HR, beats/min), aortic and coronary flow (AF and CF, ml/min.), cardiac output (CO=AF+CF, ml/min.), systolic and diastolic aortic pressure (mm Hg) were recorded. Coronary vascular resistance and work were calculated according to Neely et al., 1967 (Neely et al. “Effect of Pressure Development on Oxygen Consumption by the Isolated Rat Heart ”. Am. J. Physiology, 212:804-12, 1967).

erythrocytes = assay: Hemolysis of rat erythrocytes after step loading and unloading with ethylene glycol vitrification solution; type: cell-based; settings: added to 60 wt % EG+0.9 wt % NaCl vitrification solution; 60 min equilibration and two unloading steps; room temperature, pH 7.0; FIG. 1
Method: Blood was sampled from external jugular vein of rats after heart extrusion described in Example 1.
Step 1: 100 μl of blood were mixed with 100 μl of 30 wt % EG+0.9 wt % NaCl. Equilibration time 10 min.
Step 2: 1000 μl of vitrification solution vitrification solution containing mixture of 60 wt % EG+0.9 wt % NaCl with different amounts of glutamic acid monosodium Salt (GA) per gram of Vitrification solution were slowly (during 3-5 min.) added to the mixture obtained after Step 1.
After that the blood cells were equilibrated in Vitrification solution during 60 min. before unloading.
Step 1: After 60 min. equilibration in vitrification solution erythrocytes were centrifuged down (5 min. at 2000 g), 0.5 ml of supernatant was removed from each sample, and 0.5 ml of 3 wt % GA+0.9 wt % NaCl were added to each sample. […]
Concentration of free hemoglobin in supernatants collected from the samples after equilibration in Vitrification solution, first and second step of unloading was used to characterize the erythrocyte damage (hemolysis). The concentration of free hemoglobin was measured using 390 Turner spectrophotometer (at 550 nm wavelength) after adding 0.5 ml of supernatant to 3 ml of water. The hemolysis was measured as a ratio of hemoglobin concentration in the supernatants to the hemoglobin concentration in the mixture of 41.7 μl of blood with 3.5 ml water that was taken as 100% hemolysis. […]

[1] = system: Drosophila melanogaster embryos; settings: co-solute in ethylene glycol vitrification solution; cited from earlier work
[2] = Experiment 0: loaded to 30 wt % DMSO in 30 min, unloaded 60 min, no co-solutes (mannitol not present)

- recovery in function after unloading (isolated rat heart; [2]): no recovery in function
- state of the heart (contracture) (isolated rat heart; [2]): developed contracture
Compound: C[S+](C)[O-] [DMSO, dimethylsulfoxide]

Compound: N[C@@H](CCC(=O)O)C(=O)[O-].[Na+] [GA, glutamic acid monosodium Salt]
- effect of co-solute on erythrocyte damage (hemolysis) (erythrocytes): protects erythrocytes from damage

Compound: N[C@@H](CCC(=O)O)C(=O)O [glutamic acid]
- effect on ethylene glycol permeation into embryos [1]: significantly diminished ethylene glycol permeation

Compound: NCC(=O)O [glycine]
- effect on ethylene glycol permeation into embryos [1]: significantly diminished ethylene glycol permeation

Compound: OC[C@@H](O)[C@@H](O)[C@H](O)[C@H](O)CO [mannitol]
- effect of presence of mannitol on damage to the heart caused by high concentration of DMSO and changes in osmotic pressure (isolated rat heart; mannitol present during loading, perfusion and unloading (Experiments 1 and 2)): prevented damage to the heart

Compound: OC[C@@H](O)[C@@H](O)[C@H](O)[C@@H](O)CO [sorbitol]
- effect on ethylene glycol permeation into embryos [1]: significantly diminished ethylene glycol permeation
